Laboratory results: publication PMC11359831, “Stepwise Structural Simplification of the Dihydroxyanthraquinone Moiety of a Multitarget Rhein-Based Anti-Alzheimer Lead to Improve Drug Metabolism and Pharmacokinetic Properties” (Pharmaceutics, 2024)
Where “and” joins values, the source holds several entries; their conditions need not be identical. Equal entries are not always repeated.

Columns and labels:
[1] = Plasma stability, rat plasma; assay type: in vitro ADME; conditions: 37 °C; for remaining at 1 h, 5 μM / remaining at 6 h, 5 μM: rat, plasma; for remaining at 1 h, 5 μM: read-out: Plasma Stability % Remaining Compound, rat, 1 h; for remaining at 6 h, 5 μM: read-out: Plasma Stability % Remaining Compound, rat, 6 h
Procedure: (§1) The plasma stability of the new compounds was tested using in human, mouse, and rat plasma (Seralab). One hundred μL of 5 μM solutions of the new compounds in plasma were plated and incubated at 37 °C for 0, 60, 120, and 360 min, and then treated with 300 μL of acetonitrile and centrifuged (4000× g; 60 min; 4 °C). Sample quantification was performed by UPLC/MS/MS analysis of the resulting supernatant using a UPLC QSM Waters Acquity apparatus, equipped with a Waters ACQUITY BEH C18 1.7 μm 2.1 × 50 mm column, eluting with 0.1% formic acid in water or in acetonitrile, with a flow of 0.6 mL/min. The gradient indicated in Table 1 was used in this assay.
(§2) Compound concentration was calculated from the MS peak areas and expressed as the percentage of remaining compound at the different tested times.

in vitro = conditions: PAMPA, PAMPA-BBB
Procedure: The parallel artificial membrane permeability assay for the blood–brain barrier (PAMPA-BBB) [41] was used to assess the in vitro brain permeability of the new compounds. For the assay, the compounds were dissolved in mixtures of PBS and ethanol (70:30).

[2] = Plasma stability, mouse plasma; assay type: in vitro ADME; conditions: 37 °C; for remaining at 1 h, 5 μM: read-out: Plasma Stability % Remaining Compound, mouse, 1 h; for remaining at 6 h, 5 μM: read-out: Plasma Stability % Remaining Compound, mouse, 6 h
Procedure: as §1, §2

[3] = target: T1, human recombinant BACE-1 (hBACE-1) (Homo sapiens, UniProt P56817); assay: In vitro hBACE-1 inhibition (fluorometric method); assay type: biochemical; conditions: for inhibition at 15 µM: read-out: hBACE-1 % inh. @15 µM
T1 construct: purchased Invitrogen, Carlsbad, CA, USA
Procedure: The inhibition of human recombinant BACE-1 (hBACE-1) (Invitrogen, Carlsbad, CA, USA) by hybrids 4–7 was evaluated by a fluorometric method. The substrate (Panvera peptide, 10 μL, 250 nM final concentration) was added to a solution (10 μL) of hybrids 4–7 or buffer in control wells (20 mM sodium acetate at pH 4.5, with 0.1% w/v CHAPS). After the addition of the enzyme (10 μL, 12.91 mU), the assay solution was incubated for 1 h at 37 °C. Thereafter, STOP solution (10 μL, 2.5 M sodium acetate) was added and the fluorescence was read at […]. The DMSO concentration in the assay solution was kept <5% (v/v) to ensure no significant loss of BACE-1 activity. The background signal, determined in control wells with all the components of the assay but BACE-1, was subtracted. The fluorescence intensities in the presence of increasing concentrations or in the absence of hybrids 4–7 were compared to calculate the percent of enzyme inhibition produced by the compounds, by applying the following expression: 100 − (IFi/IFo × 100), in which IFi and IFo are the fluorescence intensities in the presence and in the absence of the compounds, respectively. Additionally, the IC50 values were calculated (GraphPad Prism 4.03 software, GraphPad Software Inc., San Diego, CA, USA) and are given as the mean ± SEM of at least two experiments, each performed in triplicate.

tau aggregation = target: T2, tau aggregation (Homo sapiens, UniProt P10636); assay: Tau aggregation inhibition in genetically modified E. coli cells (Th-S fluorescence); assay type: cell-based, Escherichia coli; conditions: live E. coli cells overexpressing tau; for inhibition at 10 µM: read-out: Tau Aggregation % inh. @10 µM
T2 construct: expressed in transfected cells; host or cells: E. coli BL21 (DE3) bearing pTARA and pRKT42
Procedure: For tau overexpression, M9 minimal medium (10 mL) containing glucose (0.5%), ampicillin (50 μg/mL), chloramphenicol (12.5 μg/mL), and E. coli BL21 (DE3) cells bearing the pTARA plasmid, which carries the RNA polymerase gene of the T7 phage (T7RP) under control of the PBAD promoter, and subsequent transformation with the pRKT42 vector were used instead. In this case, the overnight culture for a 1:500 dilution was added to fresh M9 minimal medium containing glucose (0.5%), chloramphenicol (12.5 μg/mL), ampicillin (50 μg/mL), and Th-S (250 µM).
(§3) For Aβ42 overexpression, the corresponding E. coli cell cultures were kept growing overnight (37 °C; 250 rpm) until they reached an OD600 = 0.6. These cultures (980 μL) were added to a mixture of 10 μL of a solution of the new compounds in DMSO and 10 μL of 100 mM isopropyl 1-thio-β-D-galactopyranoside (IPTG), to reach a final compound concentration of 10 μM. The same procedure was used for tau overexpression but employing 10 μL of 25% arabinose instead of IPTG. The resulting E. coli cultures were kept growing overnight (37 °C; 1400 rpm) using an Eppendorf Thermomixer (Hamburg, Germany). To prepare a negative control for the assay, showing the highest amount of the amyloidogenic protein, the same quantity of DMSO, without the compounds to be tested, was added to the sample. With the double purpose of obtaining positive controls devoid of the amyloidogenic proteins and assessing the potential intrinsic toxicity of the new compounds, we also prepared samples that had not been treated with either IPTG or arabinose (non-induced samples).
(§4) To assess the inhibitory activity of compounds 4–7 on Aβ42 and tau aggregation within E. coli cells, a fluorescence assay was employed, using Th-S ([…] stock solution, T1892, Sigma, St. Louis, MO, USA) in double-distilled water (Milli-Q system, Millipore, Bay City, MI, USA) and an Aminco Bowman Series 2 luminescence spectrophotometer (Aminco-Bowman AB2, SLM Aminco, Rochester, NY, USA), working at 25 °C in the wavelength range of 460–600 nm, with λex = 445 nm, slit widths of 4 nm, and λem = 485 nm. The results are given as the average of nine independent experiments, each performed in triplicate.

[4] = target: T3, human recombinant AChE (hAChE) (Homo sapiens, UniProt P22303); assay: biochemical; conditions: for IC50: human recombinant AChE, Ellman method, mean ± standard error; for AChE vs. BChE selectivity: hBChE IC50 relative to hAChE IC50
T3 construct: purchased Sigma (Milan, Italy)
Procedure: The stock and assay solutions were prepared as follows:
Stock hAChE solution: solution of the lyophilized powder in 0.1% Triton X-100/0.1 M potassium phosphate (pH 8.0).
Stock solutions of the new compounds: 1 mM solutions in methanol, with further dilutions in this solvent to the desired concentrations.

Aβ42 aggregation = target: T4, Aβ42 aggregation (Homo sapiens, UniProt P05067); assay: Aβ42 aggregation inhibition in genetically modified E. coli cells (Th-S fluorescence); assay type: cell-based, Escherichia coli; conditions: for inhibition at 10 µM: live E. coli cells overexpressing Aβ42, read-out: Aβ42 Aggregation % inh. @10 µM
T4 construct: expressed in transfected cells; host or cells: E. coli BL21 (DE3) bearing pET28a-Aβ42
Procedure: For Aβ42 overexpression, M9 minimal medium (10 mL) containing kanamycin (50 μg/mL) was added to a colony of E. coli BL21 (DE3) competent cells, bearing the pET28a plasmid (Novagen, Inc., Madison, WI, USA), which contains the DNA sequence encoding for Aβ42. After overnight culture, the volume necessary to obtain a 1:500 dilution was added to fresh M9 minimal medium that contained kanamycin (50 μg/mL) and thioflavin-S (Th-S, 250 µM).
as §3, §4

[5] = Brain Permeability Pe, mean ± SD
[6] = Brain permeability class, Table 4
[7] = compound at 15 µM (parenthesized values)

T2 sequence (P10636 other isoform, or with tags, fused parts or gaps): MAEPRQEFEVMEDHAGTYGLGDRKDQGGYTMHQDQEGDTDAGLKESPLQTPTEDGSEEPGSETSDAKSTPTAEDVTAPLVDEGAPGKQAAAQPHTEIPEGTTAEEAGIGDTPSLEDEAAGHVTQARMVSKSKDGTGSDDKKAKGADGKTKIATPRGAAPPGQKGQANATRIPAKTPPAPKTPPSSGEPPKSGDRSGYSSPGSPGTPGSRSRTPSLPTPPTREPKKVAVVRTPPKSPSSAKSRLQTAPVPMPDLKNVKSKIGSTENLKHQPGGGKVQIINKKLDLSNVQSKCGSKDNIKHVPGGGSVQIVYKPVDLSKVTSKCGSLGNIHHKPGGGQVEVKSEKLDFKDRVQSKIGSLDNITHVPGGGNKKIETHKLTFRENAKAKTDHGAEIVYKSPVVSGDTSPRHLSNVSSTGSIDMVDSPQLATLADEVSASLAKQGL
T1 sequence (P56817 46-501): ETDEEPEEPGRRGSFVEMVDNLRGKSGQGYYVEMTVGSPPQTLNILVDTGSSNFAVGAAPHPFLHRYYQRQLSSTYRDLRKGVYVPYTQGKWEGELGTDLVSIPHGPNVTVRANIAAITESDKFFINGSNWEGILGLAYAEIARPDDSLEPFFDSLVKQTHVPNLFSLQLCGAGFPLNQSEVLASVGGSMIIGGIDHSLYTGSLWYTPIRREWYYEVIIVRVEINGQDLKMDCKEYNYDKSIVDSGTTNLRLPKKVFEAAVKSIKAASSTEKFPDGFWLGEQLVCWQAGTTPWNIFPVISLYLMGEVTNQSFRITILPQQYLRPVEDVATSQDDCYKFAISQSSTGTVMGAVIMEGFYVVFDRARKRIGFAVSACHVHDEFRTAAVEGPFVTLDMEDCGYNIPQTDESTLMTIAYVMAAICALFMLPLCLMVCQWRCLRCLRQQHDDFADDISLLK
T4 sequence (P05067 672-713): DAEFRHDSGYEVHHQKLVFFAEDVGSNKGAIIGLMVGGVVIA
T3 sequence (P22303 32-614): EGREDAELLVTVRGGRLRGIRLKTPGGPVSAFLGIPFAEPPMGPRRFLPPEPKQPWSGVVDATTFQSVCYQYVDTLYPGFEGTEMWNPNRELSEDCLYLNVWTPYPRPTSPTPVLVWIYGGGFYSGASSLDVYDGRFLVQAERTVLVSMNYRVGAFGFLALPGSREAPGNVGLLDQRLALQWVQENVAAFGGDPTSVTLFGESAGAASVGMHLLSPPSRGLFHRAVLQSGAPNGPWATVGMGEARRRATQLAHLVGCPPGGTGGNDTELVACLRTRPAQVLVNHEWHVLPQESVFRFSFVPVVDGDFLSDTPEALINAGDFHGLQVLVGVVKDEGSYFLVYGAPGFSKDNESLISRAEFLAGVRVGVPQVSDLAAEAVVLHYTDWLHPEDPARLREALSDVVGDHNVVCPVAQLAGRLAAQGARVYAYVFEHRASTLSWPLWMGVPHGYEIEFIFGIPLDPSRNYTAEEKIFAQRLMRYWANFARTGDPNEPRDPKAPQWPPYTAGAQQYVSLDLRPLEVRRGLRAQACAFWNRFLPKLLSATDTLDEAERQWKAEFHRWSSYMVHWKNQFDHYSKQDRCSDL

| SMILES | Plasma Stability % Remaining Compound, rat, 6 h ([1]; 6 h, 5 μM) | remaining at 1 h, 5 μM [1] | remaining at 6 h, 5 μM ([1]; 6 h) | Papp (in vitro; [5]) | Papp (in vitro; [6]) | remaining at 1 h, 5 μM [2] | remaining at 6 h, 5 μM [2] | IC50 [3] | hBACE-1 % inh. @15 µM ([3]; compound at 15 µM (parenthesized values), 15 µM) | inhibition at 15 µM [3, 7] | Tau Aggregation % inh. @10 µM (tau aggregation) | inhibition at 10 µM (tau aggregation) | IC50 [4] | Aβ42 Aggregation % inh. @10 µM (Aβ42 aggregation; live E. coli cells overexpressing Aβ42) | inhibition at 10 µM (Aβ42 aggregation) | AChE vs. BChE selectivity [4] |
| --- | --- | --- | --- | --- | --- | --- | --- | --- | --- | --- | --- | --- | --- | --- | --- | --- |
| CC(=O)c1cccc(C(=O)NCCCCCCCCCNc2c3c(nc4cc(Cl)ccc24)CC2C=C(C)CC3C2)c1 (centres unmarked) [Compound 7, 3-Acetyl-N-{9-[(3-chloro-6,7,10,11-tetrahydro-9-methyl-7,11-methanocycloocta[b]quinolin-12-yl)amino]nonyl}benzamide] | 85.8% | 98.9% | 86% | 16.5 ± 1.1 ×10⁻⁶ cm/s | > 5.2 ×10⁻⁶ cm/s | 97.5% | 96% | ≤ 15000 nM | (48.1 ± 0.3) % | 48% | 68.3 ± 3.1% | 68% | 6 nM and 5.97 nM | 73.1 ± 4.8% | 73% | – |
| CC1=CC2Cc3nc4cc(Cl)ccc4c(NCCCCCCCCCNC(=O)c4cccc(C(=O)c5ccccc5)c4)c3C(C1)C2 (centres unmarked) [Compound 6, 3-Benzoyl-N-{9-[(3-chloro-6,7,10,11-tetrahydro-9-methyl-7,11-methanocycloocta[b]quinolin-12-yl)amino]nonyl}benzamide] | – | 96% | 92.4% | 7.4 ± 0.3 ×10⁻⁶ cm/s | > 5.2 ×10⁻⁶ cm/s | 98.3% | 76.9% | ≤ 15000 nM | – | 61.5% | – | 62.5 ± 2.1% | 11.6 ± 0.9 nM | – | 72.6 ± 2.7% | – |
| CC1=CC2Cc3nc4cc(Cl)ccc4c(NCCCCCCCCCNC(=O)c4ccc5c(c4)C(=O)c4ccccc4C5=O)c3C(C1)C2 (centres unmarked) [Compound 4, N-{9-[(3-Chloro-6,7,10,11-tetrahydro-9-methyl-7,11-methanocycloocta[b]quinolin-12-yl)amino]nonyl}anthraquinone-2-carboxamide] | – | 100% | 77.2% | 9.2 ± 1.2 ×10⁻⁶ cm/s | > 5.2 ×10⁻⁶ cm/s | 96% | 90.1% | 2890 ± 500 nM | – | – | – | 63 ± 3.5% | 6.91 ± 0.77 nM | – | 73.3 ± 3.6% | 181 |
| CC1=CC2Cc3nc4cc(Cl)ccc4c(NCCCCCCCCCNC(=O)c4ccc5c(c4)C(=O)c4ccccc4-5)c3C(C1)C2 (centres unmarked) [Compound 5, N-{9-[(3-Chloro-6,7,10,11-tetrahydro-9-methyl-7,11-methanocycloocta[b]quinolin-12-yl)amino]nonyl}-9-fluorenone-2-carboxamide] | – | 93.6% | 84.7% | 6.2 ± 0.8 ×10⁻⁶ cm/s | > 5.2 ×10⁻⁶ cm/s | 95.7% | 90.4% | 5630 ± 10 nM | – | – | – | 68.9 ± 2.1% | 5.93 ± 0.26 nM | – | 69.8 ± 1.2% | 149 |
| CC1=CC2Cc3nc4cc(Cl)ccc4c(NCCCCCCCCCNC(=O)c4cc(O)c5c(c4)C(=O)c4cccc(O)c4C5=O)c3C(C1)C2 (centres unmarked) [Compound 3] | – | 98% | 67.9% | – | > 5.2 ×10⁻⁶ cm/s | 97.2% | 92.9% | 1500 ± 380 nM | – | – | – | 58.2 ± 1.8% | – | – | 74.2 ± 1.6% | – |
